Assay results taken from US20060160865A1, “Pyridinyl carbamates” (Novo Nordisk A/S, priority 2003, published 2006).

What follows are molecules tested against T1, Hormone-sensitive lipase (HSL) (Homo sapiens, UniProt Q05469) (assay: Assay 3190.1: percent inhibition of hormone sensitive lipase by compound at 10 μM (fluorochrome-labeled triacylglyceride substrate)). Details: 10 μM sample concentration; % activity relative to non-inhibited sample (no compound); 30 min pre-incubation at 25° C., 120 min at 37° C.; read-out: Test 3190.1 HSL_FL % ACTIVITY.
T1 construct: made in house
T1 sequence (Q05469 1-775 isoform Q05469-2): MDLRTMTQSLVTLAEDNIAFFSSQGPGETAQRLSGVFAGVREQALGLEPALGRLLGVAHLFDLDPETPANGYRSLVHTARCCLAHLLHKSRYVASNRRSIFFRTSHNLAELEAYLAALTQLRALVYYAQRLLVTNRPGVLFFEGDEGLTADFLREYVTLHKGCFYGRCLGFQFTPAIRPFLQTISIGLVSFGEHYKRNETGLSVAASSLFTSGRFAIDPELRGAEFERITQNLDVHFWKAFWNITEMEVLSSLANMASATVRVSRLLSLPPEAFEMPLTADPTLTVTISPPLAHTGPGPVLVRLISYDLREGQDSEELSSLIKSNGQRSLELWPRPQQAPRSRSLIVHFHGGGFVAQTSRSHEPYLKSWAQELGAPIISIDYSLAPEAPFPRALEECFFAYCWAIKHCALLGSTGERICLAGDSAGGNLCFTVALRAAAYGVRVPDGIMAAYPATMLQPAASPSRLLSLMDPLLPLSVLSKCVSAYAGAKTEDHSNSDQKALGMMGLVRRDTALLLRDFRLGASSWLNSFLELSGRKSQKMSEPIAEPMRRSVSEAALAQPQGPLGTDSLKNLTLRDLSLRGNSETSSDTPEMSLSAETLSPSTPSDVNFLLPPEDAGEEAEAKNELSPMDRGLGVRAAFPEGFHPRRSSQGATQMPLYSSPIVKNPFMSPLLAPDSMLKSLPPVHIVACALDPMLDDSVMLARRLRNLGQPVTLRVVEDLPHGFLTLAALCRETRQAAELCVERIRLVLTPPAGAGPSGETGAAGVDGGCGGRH
Type: biochemical
Description: Materials. The Hormone-sensitive lipase was provided by Dr. Cecilia Holm, from Lund University Sweden or produced and purified by Novo Nordisk (NN) using the reagents and protocols used by Dr. Holm. The substrates used are: ^3H-labeled triolein (TO) from Amersham, Buckinghamshire, U.K. cat No. TRA191; 5-20 Ci/mmol dissolved in toluene, triolein (Sigma, Cat. No. T-1740), fluorochrome-labeled triacylglyceride (cis-octadec-9-enoic acid 2-[12-(7-nitrobenzo[1,2,5]oxadiazol-4-ylamino)dodecanoyloxy]-1-cis-octadec-9-enoyloxymethyl-ethyl ester) prepared by Novo Nordisk (NN) by conventional methods, and 1,3-(di[^3H]-stearin), 2-(PEG-Biotin)glycerol prepared in collaboration with Amersham Pharmacia Biotech, UK and described in WO 01/073442. Phosphatidyl choline (PC) and phosphatidyl inositol (PI) are from Sigma (St Luis Mo. cat. Nos. P-3556 and P-5954 respectively). All other reagents are of commercial grade and obtained from various commercial sources.
3190.1: Assay for determination of percent inhibition of hormone sensitive lipase by compound at 10 μM sample concentration.
A lipid emulsion with fluorochrome-labeled triacylglyceride and phospholipid is used as substrate with a standard concentration of highly purified HSL (12 μg/mL initial concentration corresponding to 600 ng/mL final concentration). BSA is added as product acceptor. The transfer of the fluorochrome from the lipid phase to the water (BSA) phase changes the fluorescent properties of the fluorochrome. The changes can be monitored on a fluorimeter with an excitation wavelength of 450 nm and an emission wavelength of 545 nm.
Compound and HSL (20 μL compound, 10 μL enzyme and 70 μL PED-BSA buffer) is pre-incubated for 30 min at 25° C. before addition of substrate (100 μL). Amount of formed product is measured after 120 min incubation at 37° C.
Results are given as percent activity relative to a non-inhibited sample (no compound). 3190.2: Assay for determination of IC50 value for the inhibition of hormone sensitive lipase by compound. Standard concentrations of compound are 100 μM and 5-fold dilutions (initial concentration corresponding to 10 μM final concentration and 5-fold).

**Q.** `CN(C(=O)Oc1ccc(CCN2C(=O)CC(C)(C)CC2=O)cn1)c1ccccc1` [Example 1, Methyl-phenyl-carbamic acid 5-[2-(4,4-dimethyl-2,6-dioxo-piperidin-1-yl)-ethyl]-pyridin-2-yl ester] was tested. Which activity at 10 µM did it give?
**A.** 0%

**Q.** With `CN(C(=O)Oc1ccc(NCC(=O)OC(C)(C)C)cn1)c1ccccc1` [Example 2, [6-(Methyl-phenyl-carbamoyloxy)-pyridin-3-ylamino]-acetic acid tert-butyl ester] as the molecule, how does the activity at 10 µM read?
**A.** 1%

**Q.** For `CN(C(=O)Oc1ccc(N2C(=O)CNC2=S)cn1)c1ccccc1` [Example 5, Methyl-phenyl-carbamic acid 5-(5-oxo-2-thioxo-imidazolidin-1-yl)-pyridin-2-yl ester], which activity at 10 µM is on record?
**A.** 9%

**Q.** How did the activity at 10 µM turn out when `CCC1NC(=S)N(c2ccc(OC(=O)N(C)c3ccccc3)nc2)C1=O` (stereo not drawn) [Example 8, Methyl-phenyl-carbamic acid 5-(4-ethyl-5-oxo-2-thioxo-imidazolidin-1-yl)-pyridin-2-yl ester] was run?
**A.** 3%

**Q.** For `CN(C(=O)Oc1ccc(NC(=S)NCC(C)(C)C)cn1)c1ccccc1` [Example 12, Methyl-phenyl-carbamic acid 5-[3-(2,2-dimethyl-propyl)-thioureido]-pyridin-2-yl ester], which activity at 10 µM is on record?
**A.** 2%

**Q.** With `CCCCNC(=S)Nc1ccc(OC(=O)N(C)c2ccccc2)nc1` [Example 16, Methyl-phenyl-carbamic acid 5-(3-butyl-thioureido)-pyridin-2-yl ester] as the molecule, how does the activity at 10 µM read?
**A.** 1%

**Q.** With `COc1cccc(C(=O)Nc2ccc(OC(=O)N(C)c3ccccc3)nc2)c1` [Example 21, Methyl-phenyl-carbamic acid 5-(3-methoxy-benzoylamino)-pyridin-2-yl ester] as the molecule, how does the activity at 10 µM read?
**A.** 1%

**Q.** Which activity at 10 µM does the source give for `CN(C(=O)Oc1ccc(NC(=O)c2cccc(C(F)(F)F)c2F)cn1)c1ccccc1` [Example 28, Methyl-phenyl-carbamic acid 5-(2-fluoro-3-trifluoromethyl-benzoylamino)-pyridin-2-yl ester] here?
**A.** 1%

**Q.** How did the activity at 10 µM turn out when `CN(C)c1cccc(C(=O)Nc2ccc(OC(=O)N(C)c3ccccc3)nc2)c1` [Example 31, Methyl-phenyl-carbamic acid 5-(3-dimethylamino-benzoylamino)-pyridin-2-yl ester] was run?
**A.** 3%

**Q.** `COc1ccccc1N(C)C(=O)Oc1ccc(N2C(=O)CC(C)(C)CC2=O)cn1` [Example 32, (2-Methoxy-phenyl)-methyl-carbamic acid 4,4-dimethyl-2,6-dioxo-3,4,5,6-tetrahydro-2H-[1,3′]bipyridinyl-6′-yl ester] was tested. Which activity at 10 µM did it give?
**A.** 6%

**Q.** With `CN(C(=O)Oc1ccc(NC(=O)NC(C)(C)C)cn1)c1ccccc1` [Example 35, Methyl-phenyl-carbamic acid 5-(3-tert-butyl-ureido)-pyridin-2-yl ester] as the molecule, how does the activity at 10 µM read?
**A.** 8%

**Q.** How did the activity at 10 µM turn out when `CC1CCN(Cc2ccc(C(=O)Nc3ccc(OC(=O)N(C)c4ccccc4)nc3)cc2)CC1` [Example 41, Methyl-phenyl-carbamic acid 5-[4-(4-methyl-piperidin-1-ylmethyl)-benzoylamino]-pyridin-2-yl ester] was run?
**A.** 3%

**Q.** Which activity at 10 µM does the source give for `CC1CCCCN1Cc1ccc(C(=O)Nc2ccc(OC(=O)N(C)c3ccccc3)nc2)cc1` (stereo not drawn) [Example 43, Methyl-phenyl-carbamic acid 5-[4-(2-methyl-piperidin-1-ylmethyl)-benzoylamino]-pyridin-2-yl ester] here?
**A.** 7%

**Q.** How did the activity at 10 µM turn out when `CN(C(=O)Oc1ccc(NC(=O)c2ccc(CN3CCCC3)cc2)cn1)c1ccccc1` [Example 47, Methyl-phenyl-carbamic acid 5-(4-pyrrolidin-1-ylmethyl-benzoylamino)-pyridin-2-yl ester] was run?
**A.** 7%

**Q.** For `C[C@@H]1CN(Cc2ccc(C(=O)Nc3ccc(OC(=O)N(C)c4ccccc4)nc3)cc2)C[C@H](C)O1` [Example 52, cis-Methyl-phenyl-carbamic acid 5-[4-(2,6-dimethyl-morpholin-4-ylmethyl)-benzoylamino]-pyridin-2-yl ester], which activity at 10 µM is on record?
**A.** 4%

**Q.** `CN(C(=O)Oc1ccc(NC(=O)c2ccc(-n3ccnc3)cc2)cn1)c1ccccc1` [Example 57, Methyl-phenyl-carbamic acid 5-(4-imidazol-1-yl-benzoylamino)-pyridin-2-yl ester] was tested. Which activity at 10 µM did it give?
**A.** 17%

**Q.** Which activity at 10 µM does the source give for `CCN(CC)c1ccc(C(=O)Nc2ccc(OC(=O)N(C)c3ccccc3)nc2)cc1` [Example 58, Methyl-phenyl-carbamic acid 5-(4-diethylamino-benzoylamino)-pyridin-2-yl ester] here?
**A.** 11%

**Q.** Which activity at 10 µM does the source give for `CC1CCN(C(=S)Nc2ccc(OC(=O)N(C)c3ccccc3)nc2)CC1` [Example 63, Methyl-phenyl-carbamic acid 5-[(4-methyl-piperidine-1-carbothioyl)-amino]-pyridin-2-yl ester] here?
**A.** 2%

**Q.** Which activity at 10 µM does the source give for `CN(C(=O)Oc1ccc(N2C(=O)CC(C)(C)CC2=O)cn1)c1ccc(Br)cc1` [Example 65, (4-Bromo-phenyl)-methyl-carbamic acid 4,4-dimethyl-2,6-dioxo-3,4,5,6-tetrahydro-2H-[1,3′]bipyridinyl-6′-yl ester] here?
**A.** 0%

**Q.** For `COc1ccc(N(C)C(=O)Oc2ccc(N3C(=O)CC(C)(C)CC3=O)cn2)cc1` [Example 72, (4-Methoxy-phenyl)-methyl-carbamic acid 4,4-dimethyl-2,6-dioxo-3,4,5,6-tetrahydro-2H-[1,3′]bipyridinyl-6′-yl ester], which activity at 10 µM is on record?
**A.** 2%

**Q.** With `CN(C(=O)Oc1ccc(N2C(=O)CC(C)(C)CC2=O)cn1)c1ccc(CCO)cc1` [Example 77, [4-(2-Hydroxy-ethyl)-phenyl]-methyl-carbamic acid 4,4-dimethyl-2,6-dioxo-3,4,5,6-tetrahydro-2H-[1,3′]bipyridinyl-6′-yl ester] as the molecule, how does the activity at 10 µM read?
**A.** 12%
